{"source": "PubChem BioAssay AID2060342", "about": "(Molecular Pharmacology Branch, DTP, NCI, 2025)", "system": "171881-019-R-J1-PDC multicell spheroid viability", "experiment": "Anticancer human tumor 171881-019-R-J1-PDC patient-derived invasive breast carcinoma cell line growth inhibition [IpAb]", "details": "for IC50: curve of first compound; for viability, T/C: stronger effect = lower value", "in_short": "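Multi-cell spheroids of 60% tumour cells, 25% HUVEC and 15% MSC in ultra-low-attachment U-bottom wells, treated with agents combined with ipatasertib or abemaciclib. Half-log ranges top out near clinical Cmax, or 10 microM when Cmax is unknown.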", "key": {"[1]": {"details": "second compound 0.01 µM, first compound 0.0316 µM"}, "[2]": {"details": "second compound 0.01 µM, first compound 0.1 µM"}, "[3]": {"details": "second compound 0.0316 µM, first compound 0.0316 µM"}, "[4]": {"details": "second compound 0.0316 µM, first compound 0.1 µM"}, "[5]": {"details": "second compound 0.1 µM, first compound 0.0316 µM"}, "[6]": {"details": "second compound 0.1 µM, first compound 0.1 µM"}, "[7]": {"details": "second compound 0.316 µM, first compound 0.0316 µM"}, "[8]": {"details": "second compound 0.316 µM, first compound 0.1 µM"}, "[9]": {"details": "second compound 1 µM, first compound 0.0316 µM"}, "[10]": {"details": "second compound 1 µM, first compound 0.1 µM"}}, "data": [{"compound": "Cn1ncc(Cl)c1-c1cc(C(=O)NC(CN)Cc2cccc(F)c2)sc1Cl", "note": "(stereo not given) + CCN1CCN(Cc2ccc(Nc3ncc(F)c(-c4cc(F)c5nc(C)n(C(C)C)c5c4)n3)nc2)CC1;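 further: spheroids exposed to the agents for seven days before readout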", "values": [{"measurement": "IC50", "setting": "second compound 0.01 µM", "value": 183, "unit": "nM"}, {"measurement": "IC50", "setting": "second compound 0.0316 µM", "value": 176, "unit": "nM"}, {"measurement": "IC50", "setting": "second compound 0.1 µM", "value": 167, "unit": "nM"}, {"measurement": "IC50", "setting": "second compound 0.316 µM", "value": 207, "unit": "nM"}, {"measurement": "IC50", "setting": "second compound 1 µM", "value": 345, "unit": "nM"}, {"measurement": "viability, T/C", "setting": "[1]", "value": 116, "unit": "%"}, {"measurement": "viability, T/C", "setting": "[2]", "value": 69.1, "unit": "%"}, {"measurement": "viability, T/C", "setting": "second compound 0.01 µM, first compound 0.316 µM", "value": 31.4, "unit": "%"}, {"measurement": "viability, T/C", "setting": "second compound 0.01 µM, first compound 1 µM", "value": 16.8, "unit": "%"}, {"measurement": "viability, T/C", "setting": "second compound 0.01 µM, first compound 3.16 µM", "value": 3.11, "unit": "%"}, {"measurement": "viability, T/C", "setting": "second compound 0.01 µM, first compound 10 µM", "value": 0.48, "unit": "%"}, {"measurement": "viability, T/C", "setting": "[3]", "value": 116, "unit": "%"}, {"measurement": "viability, T/C", "setting": "[4]", "value": 67.4, "unit": "%"}, {"measurement": "viability, T/C", "setting": "second compound 0.0316 µM, first compound 0.316 µM", "value": 31.1, "unit": "%"}, {"measurement": "viability, T/C", "setting": "second compound 0.0316 µM, first compound 1 µM", "value": 15.9, "unit": "%"}, {"measurement": "viability, T/C", "setting": "second compound 0.0316 µM, first compound 3.16 µM", "value": 4.15, "unit": "%"}, {"measurement": "viability, T/C", "setting": "second compound 0.0316 µM, first compound 10 µM", "value": 0.13, "unit": "%"}, {"measurement": "viability, T/C", "setting": "[5]", "value": 103, "unit": "%"}, {"measurement": "viability, T/C", "setting": "[6]", "value": 66.2, "unit": "%"}, {"measurement": "viability, T/C", "setting": "second compound 0.1 µM, first compound 0.316 µM", "value": 28, "unit": "%"}, {"measurement": "viability, T/C", "setting": "second compound 0.1 µM, first compound 1 µM", "value": 17.3, "unit": "%"}, {"measurement": "viability, T/C", "setting": "second compound 0.1 µM, first compound 3.16 µM", "value": 3.84, "unit": "%"}, {"measurement": "viability, T/C", "setting": "second compound 0.1 µM, first compound 10 µM", "value": 0.58, "unit": "%"}, {"measurement": "viability, T/C", "setting": "[7]", "value": 107, "unit": "%"}, {"measurement": "viability, T/C", "setting": "[8]", "value": 73.2, "unit": "%"}, {"measurement": "viability, T/C", "setting": "second compound 0.316 µM, first compound 0.316 µM", "value": 34, "unit": "%"}, {"measurement": "viability, T/C", "setting": "second compound 0.316 µM, first compound 1 µM", "value": 19.4, "unit": "%"}, {"measurement": "viability, T/C", "setting": "second compound 0.316 µM, first compound 3.16 µM", "value": 4.04, "unit": "%"}, {"measurement": "viability, T/C", "setting": "second compound 0.316 µM, first compound 10 µM", "value": 0.34, "unit": "%"}, {"measurement": "viability, T/C", "setting": "[9]", "value": 122, "unit": "%"}, {"measurement": "viability, T/C", "setting": "[10]", "value": 87.9, "unit": "%"}, {"measurement": "viability, T/C", "setting": "second compound 1 µM, first compound 0.316 µM", "value": 50.1, "unit": "%"}, {"measurement": "viability, T/C", "setting": "second compound 1 µM, first compound 1 µM", "value": 27.3, "unit": "%"}, {"measurement": "viability, T/C", "setting": "second compound 1 µM, first compound 3.16 µM", "value": 8.61, "unit": "%"}, {"measurement": "viability, T/C", "setting": "second compound 1 µM, first compound 10 µM", "value": 0.61, "unit": "%"}]}, {"compound": "Cn1ncnc1[C@H]1c2n[nH]c(=O)c3cc(F)cc(c23)N[C@@H]1c1ccc(F)cc1", "note": "+ CCN1CCN(Cc2ccc(Nc3ncc(F)c(-c4cc(F)c5nc(C)n(C(C)C)c5c4)n3)nc2)CC1", "values": [{"measurement": "IC50", "setting": "second compound 0.01 µM", "value": "> 100", "unit": "nM"}, {"measurement": "IC50", "setting": "second compound 0.0316 µM", "value": "> 100", "unit": "nM"}, {"measurement": "IC50", "setting": "second compound 0.1 µM", "value": "> 100", "unit": "nM"}, {"measurement": "IC50", "setting": "second compound 0.316 µM", "value": "> 100", "unit": "nM"}, {"measurement": "IC50", "setting": "second compound 1 µM", "value": "> 100", "unit": "nM"}, {"measurement": "viability, T/C", "setting": "second compound 0.01 µM, first compound 0.000316 µM", "value": 88.2, "unit": "%"}, {"measurement": "viability, T/C", "setting": "second compound 0.01 µM, first compound 0.001 µM", "value": 99.7, "unit": "%"}, {"measurement": "viability, T/C", "setting": "second compound 0.01 µM, first compound 0.00316 µM", "value": 86.9, "unit": "%"}, {"measurement": "viability, T/C", "setting": "second compound 0.01 µM, first compound 0.01 µM", "value": 102, "unit": "%"}, {"measurement": "viability, T/C", "setting": "[1]", "value": 95.5, "unit": "%"}, {"measurement": "viability, T/C", "setting": "[2]", "value": 109, "unit": "%"}, {"measurement": "viability, T/C", "setting": "second compound 0.0316 µM, first compound 0.000316 µM", "value": 109, "unit": "%"}, {"measurement": "viability, T/C", "setting": "second compound 0.0316 µM, first compound 0.001 µM", "value": 96.2, "unit": "%"}, {"measurement": "viability, T/C", "setting": "second compound 0.0316 µM, first compound 0.00316 µM", "value": 113, "unit": "%"}, {"measurement": "viability, T/C", "setting": "second compound 0.0316 µM, first compound 0.01 µM", "value": 114, "unit": "%"}, {"measurement": "viability, T/C", "setting": "[3]", "value": 104, "unit": "%"}, {"measurement": "viability, T/C", "setting": "[4]", "value": 113, "unit": "%"}, {"measurement": "viability, T/C", "setting": "second compound 0.1 µM, first compound 0.000316 µM", "value": 118, "unit": "%"}, {"measurement": "viability, T/C", "setting": "second compound 0.1 µM, first compound 0.001 µM", "value": 118, "unit": "%"}, {"measurement": "viability, T/C", "setting": "second compound 0.1 µM, first compound 0.00316 µM", "value": 115, "unit": "%"}, {"measurement": "viability, T/C", "setting": "second compound 0.1 µM, first compound 0.01 µM", "value": 114, "unit": "%"}, {"measurement": "viability, T/C", "setting": "[5]", "value": 116, "unit": "%"}, {"measurement": "viability, T/C", "setting": "[6]", "value": 113, "unit": "%"}, {"measurement": "viability, T/C", "setting": "second compound 0.316 µM, first compound 0.000316 µM", "value": 126, "unit": "%"}, {"measurement": "viability, T/C", "setting": "second compound 0.316 µM, first compound 0.001 µM", "value": 132, "unit": "%"}, {"measurement": "viability, T/C", "setting": "second compound 0.316 µM, first compound 0.00316 µM", "value": 124, "unit": "%"}, {"measurement": "viability, T/C", "setting": "second compound 0.316 µM, first compound 0.01 µM", "value": 127, "unit": "%"}, {"measurement": "viability, T/C", "setting": "[7]", "value": 130, "unit": "%"}, {"measurement": "viability, T/C", "setting": "[8]", "value": 126, "unit": "%"}, {"measurement": "viability, T/C", "setting": "second compound 1 µM, first compound 0.000316 µM", "value": 143, "unit": "%"}, {"measurement": "viability, T/C", "setting": "second compound 1 µM, first compound 0.001 µM", "value": 141, "unit": "%"}, {"measurement": "viability, T/C", "setting": "second compound 1 µM, first compound 0.00316 µM", "value": 140, "unit": "%"}, {"measurement": "viability, T/C", "setting": "second compound 1 µM, first compound 0.01 µM", "value": 135, "unit": "%"}, {"measurement": "viability, T/C", "setting": "[9]", "value": 137, "unit": "%"}, {"measurement": "viability, T/C", "setting": "[10]", "value": 138, "unit": "%"}]}]}
